Test results: publication PMC3731320, “Identification of Benzimidazole Diamides as Selective Inhibitors of the Nucleotide-Binding Oligomerization Domain 2 (NOD2) Signaling Pathway” (PLoS ONE, 2013)
Like-named read-outs stand apart in the source and are kept apart here.

How the values were obtained:
[1] = tested on: NOD2; experiment: MDP-stimulated cytokine release in primary human monocytes; assay type: cell-based; details: primary human monocytes
Experimental: […] The concentration of IL-1β, IL-6 and TNFα in medium samples collected after 24-hour treatment was determined using the MS6000 human pro-inflammatory-4 II tissue culture kit (Meso Scale Discovery). The IL-8 concentration was determined by HTRF.

[2] = tested on: NOD1; experiment: iE-DAP-stimulated IL-8 release in 293/hNOD1 cells (HTRF); assay type: cell-based, human; details: 60 ng/mL iE-DAP
Experimental: After 24 hours the amount of IL-8 secreted into the medium was determined by homogeneous time resolved fluorescence (HTRF) assay by the direct addition of a 1:1 mix of europium cryptate and XL665-conjugated anti-IL-8 antibodies according to the manufacturer's instructions (Cisbio).

[3] = tested on: NOD1; experiment: IL-8 secretion induced by NOD1 over-expression (BacMam) in HEK293T cells with or without iE-DAP; assay type: cell-based, human
Experimental: Over-expression of NOD1 and NOD2 was achieved by transduction of HEK293T cells with either NOD1 or NOD2 BacMam recombinant baculoviruses. […] The effect of compounds on activator-independent NOD1/2 signaling was determined by 30 minute pre-treatment of cells (in 96-well plates seeded the previous day in DMEM high glucose with 10% FBS at 60,000 cells/well) followed by infection with NOD1 or NOD2 BacMam virus (MOI = 50). IL-8 was measured in conditioned medium after 24 hour incubation at 37 °C. To determine the effect of compounds on NOD1/2 activator-dependent IL-8 secretion in BacMam transduced HEK293T, the cells were infected with virus for 6 hours (MOI = 50), and following the removal of virus the cells were cultured over-night. The next day medium was again replaced and cells pre-treated with compound for 30 minutes followed by stimulation with either MDP (30 ng/mL) or iE-DAP (300 ng/mL). IL-8 was measured in conditioned medium by HTRF after 24-hour incubation at 37 °C.

[4] = target: T1, full length human FLAG-6His tagged RIP2 (Homo sapiens, UniProt O43353); experiment: RIP2 kinase autophosphorylation assay (ADP-Glo); assay type: biochemical; details: autophosphorylation of RIPK2; 10 μM ATP
T1 construct: autophosphorylation of full length human FLAG-6His tagged RIP2; FLAG; 6His; made in house
T1 sequence (O43353 whole entry): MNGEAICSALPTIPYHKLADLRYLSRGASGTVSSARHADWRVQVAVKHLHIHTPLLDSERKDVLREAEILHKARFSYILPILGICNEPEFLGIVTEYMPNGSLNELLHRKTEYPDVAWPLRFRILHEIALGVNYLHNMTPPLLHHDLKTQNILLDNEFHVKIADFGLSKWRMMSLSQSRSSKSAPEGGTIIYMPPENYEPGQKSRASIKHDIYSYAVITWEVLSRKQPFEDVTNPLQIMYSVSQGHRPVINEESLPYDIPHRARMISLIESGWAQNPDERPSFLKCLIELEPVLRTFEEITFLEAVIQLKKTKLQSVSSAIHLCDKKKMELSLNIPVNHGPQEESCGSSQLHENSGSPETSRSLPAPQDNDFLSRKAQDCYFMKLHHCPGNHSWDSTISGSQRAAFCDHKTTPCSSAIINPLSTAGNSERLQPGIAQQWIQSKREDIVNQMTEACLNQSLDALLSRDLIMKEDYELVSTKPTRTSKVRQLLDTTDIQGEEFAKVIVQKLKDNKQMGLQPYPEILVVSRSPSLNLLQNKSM
Experimental: Direct effects of compounds on RIP2 kinase activity was determined by autophosphorylation of full length human FLAG-6His tagged RIP2 expressed and purified from baculovirus. Enzyme was pre-incubated with compounds in assay buffer (50 mM HEPES pH 7.5, 25 mM MgCl2, 0.05%[w/v] CHAPS, 1 mM DTT and 0.05 mg/mL BSA) in 384-well plates, and then incubated with 10μM ATP for 2 hours at room temperature. The amount of ADP generated was measured using the ADP-Glo universal ADP detection assay for kinases (Promega) and luminescence quantified on a ViewLux imager.

## O=C(Cn1c(CCNC(=O)c2ccccc2)nc2ccccc21)Nc1ccc2c(c1)CCC2 [Compound 1, N-(2-(1-(2-((2,3-dihydro-1H-inden-5-yl)amino)-2-oxoethyl)-1H-benzo[d]imidazol-2-yl)ethyl)benzamide]
[1]; compound 5 μM, MDP 0.1 μg/mL, IL-1β, IL-6, IL-8, TNFα, 24 hours
  effect on MDP-stimulated cytokine secretion, single concentration: partial inhibition
[1]; dose response
  effect on release of IL-8, IL-6, TNFα and IL-1β in monocytes stimulated with MDP: dose-dependently inhibited
[2]; Homo sapiens, read-out: IC50 293/hNOD1 iE-DAP, IL-8 end-point
  IC50: > 30 µM
[2]; read-out: IC50 293/hNOD1 iE-DAP, IL-8 end-point, listed as GSK669 (1)
  IC50: > 50 µM
[3]; MOI 50, 24 hours, GSK669 5 μM, IKK inhibitor 0.5 μM
  effect on IL-8 secretion induced by NOD1 virus alone, single concentration: failed to block IL-8 secretion
[3]; in the presence or absence of iE-DAP
  effect on IL-8 secretion induced by over-expression of NOD1: had no effect
[4]
  IC50: > 100 µM
